{
  "source": "paper PMC9962200",
  "about": "“Selectively Modified Lactose and N-Acetyllactosamine Analogs at Three Key Positions to Afford Effective Galectin-3 Ligands” (International Journal of Molecular Sciences, 2023)",
  "target": "T1, human galectin-3 (hGal-3) (Homo sapiens, UniProt P17931)",
  "T1 construct": "P.K. and P.B. prepared recombinant full-length hGal-3 and contributed to the ITC experiments; made in house",
  "T1 sequence (P17931 whole entry)": "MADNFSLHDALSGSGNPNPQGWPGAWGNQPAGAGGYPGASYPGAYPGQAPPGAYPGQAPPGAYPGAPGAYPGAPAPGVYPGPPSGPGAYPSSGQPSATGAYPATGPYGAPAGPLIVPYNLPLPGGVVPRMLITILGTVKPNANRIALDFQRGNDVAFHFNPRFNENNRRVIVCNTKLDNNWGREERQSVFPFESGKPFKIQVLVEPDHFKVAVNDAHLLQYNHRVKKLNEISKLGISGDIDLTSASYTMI",
  "test": "Isothermal titration calorimetry (ITC) of sugar analogs with recombinant hGal-3",
  "assay_type": "binding",
  "conditions": "27 °C; for −ΔH: binding enthalpy, lectin monomer units, errors 1–4%; for −ΔG: calculated from ΔG = -RT ln(Ka), errors less than 2%; for −TΔS: calculated from ΔG = ΔH − TΔS; for −TΔS / Kd: errors 1–7%; for n Sites/ Monomer: number of binding sites per hGal-3 monomer, errors less than 4%; for Kd / Ka: pH 7.2, 20 mM PBS buffer; for Kd: recombinant hGal-3, Kd calculated from 1/Ka; for Ka: recombinant hGal-3, errors 1–7%; for Relative Potencies: relative to methyl lactoside 1 = 1.0",
  "method": "The Kd value of PNP LacNAc (20) was similar to that of its propargyl Lac analog 11.\nITC experiments were performed using a VP-ITC instrument from GE. Injections of 4 µL of carbohydrate solutions were added from a computer-controlled micro syringe at an interval of 4 min into the sample solution of hGal-3 (cell volume = 1.43 mL) with stirring at 350 rpm. Control experiments were performed by injecting the carbohydrates into a cell containing only buffer. The concentration range of hGal-3 was 90–130 µΜ, and the concentrations of the carbohydrates were 15–25 mM based on the dry weight molecular weights of the latter molecules. The concentration of hGal-3 was based on its molecular mass. Titrations were done at 27 °C (pH 7.2) using 20 mM PBS buffer. The experimental data were fitted to a theoretical titration curve using software supplied by the vendor, with ΔH (binding enthalpy in kcal mol^−1) (lectin monomer units), Ka (association constant) and n (number of binding sites per monomer), as adjustable parameters. The Kd (dissociation constant) was calculated from 1/Ka. The quantity c = Ka Mt (0), where Mt (0) is the initial macromolecule concentration, is of importance in titration microcalorimetry. All experiments were performed with c values 1 < c < 500. The instrument was calibrated using the calibration kit containing ribonuclease A (RNase A) and cytidine 2′-monophosphate (2′-CMP) supplied by the manufacturer. Thermodynamic parameters were calculated from the Gibbs Free Energy equation, ΔG = ΔH − TΔS = -RT ln(Ka), where ΔG, ΔH, and ΔS are the changes in free energy, enthalpy, and entropy of binding, respectively. T is the absolute temperature and R = 1.98 cal mol^−11 K^−1.",
  "note": "Structures can show the parent of a compound that is named as a salt.",
  "data": [
    {"compound": "CO[C@@H]1O[C@H](CO)[C@@H](O[C@@H]2O[C@H](CO)[C@H](O)[C@H](O)[C@H]2O)[C@H](O)[C@H]1O", "note": "[Compound 1, methyl 4-O-β-D-galactopyranosyl-β-D-glucopyranoside, reference compound]", "values": [
      {"measurement": "−ΔH", "result": 16.3, "unit": "kJ/mol"},
      {"measurement": "−ΔG", "result": 23, "unit": "kJ/mol"},
      {"measurement": "−TΔS", "result": -6.69, "unit": "kJ/mol"},
      {"measurement": "n Sites/ Monomer", "result": 1.08},
      {"measurement": "Kd", "result": 91, "unit": "µM"},
      {"measurement": "Ka", "result": "1.1 10^4 M^−1"},
      {"measurement": "Relative Potencies", "result": 1.0}
    ]},
    {"compound": "C#CCO[C@@H]1O[C@H](CO)[C@@H](O[C@@H]2O[C@H](CO)[C@H](O)[C@H](O)[C@H]2O)[C@H](O)[C@H]1O", "note": "[Compound 4, Propargyl (β-D-Galactopyranosyl)-(1→4)-β-D-Glucopyranoside]", "values": [
      {"measurement": "−ΔH", "result": 23.8, "unit": "kJ/mol"},
      {"measurement": "−ΔG", "result": 24.7, "unit": "kJ/mol"},
      {"measurement": "−TΔS", "result": -0.84, "unit": "kJ/mol"},
      {"measurement": "n Sites/ Monomer", "result": 0.98},
      {"measurement": "Kd", "result": 47.6, "unit": "µM"},
      {"measurement": "Ka", "result": "2.1 10^4 M^−1"},
      {"measurement": "Relative Potencies", "result": 1.9}
    ]},
    {"compound": "O=[N+]([O-])c1ccc(O[C@@H]2O[C@H](CO)[C@@H](O[C@@H]3O[C@H](CO)[C@H](O)[C@H](O)[C@H]3O)[C@H](O)[C@H]2O)cc1", "note": "[Compound 6, 4-Nitrophenyl (β-D-Galactopyranosyl)-(1→4)-β-D-Glucopyranoside]", "values": [
      {"measurement": "−ΔH", "result": 15.5, "unit": "kJ/mol"},
      {"measurement": "−ΔG", "result": 24.7, "unit": "kJ/mol"},
      {"measurement": "−TΔS", "result": -9.2, "unit": "kJ/mol"},
      {"measurement": "n Sites/ Monomer", "result": 1.10},
      {"measurement": "Kd", "result": 50, "unit": "µM"},
      {"measurement": "Relative Potencies", "result": 1.8}
    ]},
    {"compound": "C#CCO[C@@H]1O[C@H](CO)[C@@H](O[C@@H]2O[C@H](CO)[C@H](O)[C@H](OS(=O)(=O)O)[C@H]2O)[C@H](O)[C@H]1O", "note": "[Compound 11, Propargyl (3-O-Sulfo-β-D-Galactopyranosyl)-(1→4)-β-D-Glucopyranoside Sodium Salt]", "values": [
      {"measurement": "−ΔH", "result": 15.9, "unit": "kJ/mol"},
      {"measurement": "−ΔG", "result": 25.5, "unit": "kJ/mol"},
      {"measurement": "−TΔS", "result": -9.62, "unit": "kJ/mol"},
      {"measurement": "n Sites/ Monomer", "result": 1.08},
      {"measurement": "Kd", "result": 37, "unit": "µM"},
      {"measurement": "Ka", "result": "2.7 10^4 M^−1"},
      {"measurement": "Relative Potencies", "result": 2.5}
    ]},
    {"compound": "O=[N+]([O-])c1ccc(O[C@@H]2O[C@H](CO)[C@@H](O[C@@H]3O[C@H](CO)[C@H](O)[C@H](OS(=O)(=O)O)[C@H]3O)[C@H](O)[C@H]2O)cc1", "note": "[Compound 12, 4-Nitrophenyl (3-O-Sulfo-β-D-Galactopyranosyl)-(1→4)-β-D-Glucopyranoside Sodium Salt]", "values": [
      {"measurement": "−ΔH", "result": 25.1, "unit": "kJ/mol"},
      {"measurement": "−ΔG", "result": 26.8, "unit": "kJ/mol"},
      {"measurement": "−TΔS", "result": -1.7, "unit": "kJ/mol"},
      {"measurement": "n Sites/ Monomer", "result": 0.97},
      {"measurement": "Kd", "result": 20.4, "unit": "µM"},
      {"measurement": "Ka", "result": "4.9 10^4 M^−1"},
      {"measurement": "Relative Potencies", "result": 4.5}
    ]},
    {"compound": "CC(=O)N[C@H]1[C@H](Oc2ccc([N+](=O)[O-])cc2)O[C@H](CO)[C@@H](O[C@@H]2O[C@H](CO)[C@H](O)[C@H](O)[C@H]2O)[C@@H]1O", "note": "[Compound 20, 4-Nitrophenyl (β-D-Galactopyranosyl)-(1→4)-2-Acetamido-2-Deoxy-β-D-Glucopyranoside]", "values": [
      {"measurement": "−ΔH", "result": 30.5, "unit": "kJ/mol"},
      {"measurement": "−ΔG", "result": 25.5, "unit": "kJ/mol"},
      {"measurement": "−TΔS", "result": 5.02, "unit": "kJ/mol"},
      {"measurement": "n Sites/ Monomer", "result": 1.05},
      {"measurement": "Kd", "result": 33.3, "unit": "µM"},
      {"measurement": "Ka", "result": "3.0 10^4 M^−1"},
      {"measurement": "Relative Potencies", "result": 2.7}
    ]},
    {"compound": "CC(=O)N[C@H]1[C@H](Oc2ccc([N+](=O)[O-])cc2)O[C@H](CO)[C@@H](O[C@@H]2O[C@H](CO)[C@H](O)[C@H](OS(=O)(=O)O)[C@H]2O)[C@@H]1O", "note": "[Compound 23, 4-Nitrophenyl (3-O-Sulfo-β-D-Galactopyranosyl)-(1→4)-2-Acetamido-2-Deoxy-β-D-Glucopyranoside Sodium Salt]", "values": [
      {"measurement": "−ΔH", "result": 13.8, "unit": "kJ/mol"},
      {"measurement": "−ΔG", "result": 26.4, "unit": "kJ/mol"},
      {"measurement": "−TΔS", "result": -12.6, "unit": "kJ/mol"},
      {"measurement": "n Sites/ Monomer", "result": 0.96},
      {"measurement": "Kd", "result": 22.2, "unit": "µM"},
      {"measurement": "Ka", "result": "4.5 10^4 M^−1"},
      {"measurement": "Relative Potencies", "result": 4.1}
    ]},
    {"compound": "C#CCO[C@@H]1O[C@H](CO)[C@@H](O[C@@H]2O[C@H](CO)[C@H](O)[C@H](O)[C@H]2O)[C@H](O)[C@H]1NC(C)=O", "note": "[Compound 27, Propargyl (β-D-Galactopyranosyl)-(1→4)-2-Acetamido-2-Deoxy-β-D-Glucopyranoside]", "values": [
      {"measurement": "−ΔH", "result": 17.6, "unit": "kJ/mol"},
      {"measurement": "−ΔG", "result": 25.1, "unit": "kJ/mol"},
      {"measurement": "−TΔS", "result": -7.53, "unit": "kJ/mol"},
      {"measurement": "n Sites/ Monomer", "result": 1.10},
      {"measurement": "Kd", "result": 38, "unit": "µM"},
      {"measurement": "Ka", "result": "2.6 10^4 M^−1"},
      {"measurement": "Relative Potencies", "result": 2.4}
    ]},
    {"compound": "C#CCO[C@@H]1O[C@H](CO)[C@@H](O[C@@H]2O[C@H](CO)[C@H](O)[C@H](OS(=O)(=O)O)[C@H]2O)[C@H](O)[C@H]1NC(C)=O", "note": "[Compound 30, Propargyl (3-O-Sulfo-β-D-Galactopyranosyl)-(1→4)-2-Acetamido-2-Deoxy-β-D-Glucopyranoside Sodium Salt]", "values": [
      {"measurement": "−ΔH", "result": 21.8, "unit": "kJ/mol"},
      {"measurement": "−ΔG", "result": 27.6, "unit": "kJ/mol"},
      {"measurement": "−TΔS", "result": -5.86, "unit": "kJ/mol"},
      {"measurement": "n Sites/ Monomer", "result": 1.07},
      {"measurement": "Kd", "result": 14.7, "unit": "µM"},
      {"measurement": "Ka", "result": "6.8 10^4 M^−1"},
      {"measurement": "Relative Potencies", "result": 6.2}
    ]},
    {"compound": "C#CCO[C@@H]1O[C@H](CO)[C@@H](O[C@@H]2O[C@H](CO)[C@H](O)[C@H](OCC(=O)O)[C@H]2O)[C@H](O)[C@H]1NC(C)=O", "note": "[Compound 32, Propargyl (3-O-Carboxymethyl-β-D-Galactopyranosyl)-(1→4)-2-Acetamido-2-Deoxy-β-D-Glucopyranoside Sodium Salt]", "values": [
      {"measurement": "−ΔH", "result": 18, "unit": "kJ/mol"},
      {"measurement": "−ΔG", "result": 24.3, "unit": "kJ/mol"},
      {"measurement": "n Sites/ Monomer", "result": 1.10},
      {"measurement": "Kd", "result": 52.6, "unit": "µM"},
      {"measurement": "Ka", "result": "1.9 10^4 M^−1"},
      {"measurement": "Relative Potencies", "result": 1.7}
    ]},
    {"compound": "C#CCOC1OC(CO)C(OC2OC(CO)C(O)C(OC3(C(=O)O)CC(O)C(NC(C)=O)C(C(O)C(O)CO)O3)C2O)C(O)C1NC(C)=O", "note": "(stereo not drawn) [Compound 33]", "values": [
      {"measurement": "−ΔH", "result": 24.7, "unit": "kJ/mol"},
      {"measurement": "−ΔG", "result": 23.8, "unit": "kJ/mol"},
      {"measurement": "−TΔS", "result": 0.84, "unit": "kJ/mol"},
      {"measurement": "n Sites/ Monomer", "result": 1.04},
      {"measurement": "Kd", "result": 62.5, "unit": "µM"},
      {"measurement": "Ka", "result": "1.6 10^4 M^−1"},
      {"measurement": "Relative Potencies", "result": 1.5}
    ]}
  ]
}
